Data as given in PMC12172596, “Unveiling New Triazoloquinoxaline‐Based PROTACs Designed for the Selective Degradation of the ncBAF Chromatin Remodeling Subunit BRD9” (Chemistry (Weinheim an Der Bergstrasse, Germany), 2025).
Read-outs that look alike come from different tables or passages of the source.

Legend:
[1] = target: T1, BRD9 (Homo sapiens, UniProt Q9H8M2); assay: Western blotting of BRD9 protein levels in U937 cells; assay type: cell-based; conditions: for BRD9 protein levels (degradation): different concentrations
T1 construct: WB analysis showing BRD9 protein levels following 48‐hours treatments with compounds 2−8; endogenous in cells; host or cells: U937 (ATCC)
T1 sequence (Q9H8M2 1-597): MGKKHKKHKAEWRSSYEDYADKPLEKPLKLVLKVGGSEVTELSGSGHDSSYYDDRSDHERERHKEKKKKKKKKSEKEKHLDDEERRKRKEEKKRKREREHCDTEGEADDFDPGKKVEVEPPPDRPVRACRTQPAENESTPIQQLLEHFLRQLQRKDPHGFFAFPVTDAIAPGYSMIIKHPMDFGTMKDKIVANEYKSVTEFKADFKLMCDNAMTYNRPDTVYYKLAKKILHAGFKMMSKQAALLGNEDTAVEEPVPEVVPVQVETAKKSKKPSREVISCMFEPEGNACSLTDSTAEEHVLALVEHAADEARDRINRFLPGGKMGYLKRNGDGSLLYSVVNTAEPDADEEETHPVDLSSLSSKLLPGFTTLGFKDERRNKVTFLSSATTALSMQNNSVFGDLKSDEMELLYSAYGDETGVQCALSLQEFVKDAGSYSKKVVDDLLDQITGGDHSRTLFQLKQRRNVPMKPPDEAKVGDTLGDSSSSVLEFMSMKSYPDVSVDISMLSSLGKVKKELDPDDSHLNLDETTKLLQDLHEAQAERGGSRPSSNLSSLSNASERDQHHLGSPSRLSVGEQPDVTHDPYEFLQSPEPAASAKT
Protocol: Cells have been authenticated by STR profiling.
Western blot was performed according to the previous protocol.^[ [71], [72] ^] U937 AML cells were pelleted and then lysed in RIPA buffer (1% Triton X‐100, 0.1% SDS, 150 mM NaCl, 1 mM EDTA pH 8, 10 mM Tris‐HCl pH 8) added with 1% protease inhibitor cocktail. The resulting lysate was subjected to centrifugation for 15 minutes at 4 °C. […] The protein signal was visualized by enhanced chemiluminescence method (ECL) through the Bio‐Rad Chemidoc machine. ImageJ software was used for densitometric analysis.

[2] = target: T2, BRD9 (BD1) (Homo sapiens, UniProt Q9H8M2); parameters: method as in PMID 34823196; conditions: previously disclosed; read-out: IC50, affinity for BRD9; cited from earlier work
T2 construct: BSP‐32519
T2 sequence (Q9H8M2 136-240 limits assumed): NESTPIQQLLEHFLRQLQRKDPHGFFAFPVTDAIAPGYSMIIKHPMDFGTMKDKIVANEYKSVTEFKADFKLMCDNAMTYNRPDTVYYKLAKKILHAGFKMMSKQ

[3] = system: U937 cells; assay: CCK8 viability assay in U937 cells; assay type: cell-based, human; conditions: for U937 cell viability: CCK8, 48 hours treatment
Protocol: (§1) The AML U937 cell line (ATCC) was grown in Roswell Park Memorial Institute (RPMI) 1640 Medium with the addition of 10% fetal bovine serum (FBS), 1% L‐glutamine, and 1% antibiotics (100 U/mL penicillin, 100 µg/mL streptomycin, and 250 ng/mL amphotericin‐B). Cells have been authenticated by STR profiling.
CCK8 was purchased from Elabscience and used according to manufacturer instructions, briefly: 100 µL of cell suspension was added to each well using a 96‐well microplate. Cells were then incubated at 37 °C, in a 5% CO2 incubator for 24 hours. Compounds were added to the cells and incubated for an additional 48 hours at 37 °C. Next, 10 µL of CCK‐8 Buffer was added to each well, and cells were incubated again for 4 hours. Next, 450 nm absorbance was measured using a TECAN microplate reader.

[4] = Microsomal stability in human liver microsomes (HLMs); assay type: in vitro ADME; conditions: LC-MS/MS analysis
Protocol: In our assay we followed the loss of the test compounds over time under CYP‐mediated metabolic pathways. The extent of hepatic metabolism allowed us the determination of different pharmacokinetic parameters such as in vitro t1/2, CLint, in vitro and CLint, in vivo. In vitro t1/2 and CLint, in vitro of test compounds after liver microsomes incubation were calculated according to “well‐stirred” model. In the “well‐stirred” model, the liver is represented by a single compartment, where the unbound concentration of a drug leaving the liver is in equilibrium with the intracellular unbound concentration in the hepatocytes.^[ [53] ^] Predicted CLint, invivo values were determined using human PBSF.^[ [54] ^]
The microsomal stability of compounds 2 and 9 was assessed according to the previously described protocol.^[ [73] ^] […] The supernatants were collected and analyzed by LC‐MS/MS. The extent of metabolism is quantified as a percentage of the parent compound turnover. […] In vitro half‐lives (t1/2) were calculated using the expression t1/2 = 0.693/b, where b is the slope found in the linear fit of the natural logarithm of the fraction remaining of the parent compound versus incubation time. Microsomal intrinsic clearance was calculated as CLint , in vitro = (1000) × (0.693/t1/2)/0.5. […]

[5] = Human plasma stability; assay type: in vitro ADME; conditions: incubation up to 120 minutes, 37 °C, read-out: compound recovery after incubation with human plasma
Protocol: The plasma stability of compounds 2 and 9 was evaluated. Briefly, the plasma was equilibrated at 37 °C, and biotransformation was initiated by adding the compound solution and mixing. At each specified time point (0, 60, and 120 minutes), test compounds were extracted into 200 µL ice‐cold methanol to stop degradation. Tolbutamide was added during the quenching phase. Finally, the concentration of the test compound was monitored by LC‐MS. The percentage of the test compound remaining at each individual time point was reported. The results are reported as mean ± SD from three independent experiments. Procaine and procainamide were used as controls.

[6] = target: T2, BRD9 (BD1); assay: AlphaScreen assay, BRD9 (BD1) Inhibitor Screening Assay Kit; assay type: binding; conditions: for IC50: AlphaScreen, read-out: IC50, BRD9 binding
Protocol: The evaluation of the interaction between synthesized compounds and BRD9 was conducted using AlphaScreen Technology using an Enspire microplate analyzer (Perkin Elmer)^[ [70] ^] and the BRD9 (BD1) Inhibitor Screening Assay Kit (BSP‐32519) as reported by Colarusso et al.^[ [38], [39] ^] IC50 values were calculated by GraphPad Prism10 software.

[7] = system: U937 cells; assay: Proliferation assay (trypan blue exclusion cell counting) in U937 cells; assay type: cell-based, human; conditions: time-point treatment
Protocol: as §1
Trypan blue exclusion cell counting has been used to trace the number of cells over the different times of analysis.

[8] = target: T3, BRD7 (Homo sapiens, UniProt Q9NPI1); assay: Western blotting of BRD7 protein levels in U937 cells; assay type: cell-based; conditions: 48 hours treatment, western blot
T3 construct: WB analysis showing BRD9 and BRD7 protein levels following 48‐hours treatment with compound 9; endogenous in cells; host or cells: U937 (ATCC)
T3 sequence (Q9NPI1 1-651): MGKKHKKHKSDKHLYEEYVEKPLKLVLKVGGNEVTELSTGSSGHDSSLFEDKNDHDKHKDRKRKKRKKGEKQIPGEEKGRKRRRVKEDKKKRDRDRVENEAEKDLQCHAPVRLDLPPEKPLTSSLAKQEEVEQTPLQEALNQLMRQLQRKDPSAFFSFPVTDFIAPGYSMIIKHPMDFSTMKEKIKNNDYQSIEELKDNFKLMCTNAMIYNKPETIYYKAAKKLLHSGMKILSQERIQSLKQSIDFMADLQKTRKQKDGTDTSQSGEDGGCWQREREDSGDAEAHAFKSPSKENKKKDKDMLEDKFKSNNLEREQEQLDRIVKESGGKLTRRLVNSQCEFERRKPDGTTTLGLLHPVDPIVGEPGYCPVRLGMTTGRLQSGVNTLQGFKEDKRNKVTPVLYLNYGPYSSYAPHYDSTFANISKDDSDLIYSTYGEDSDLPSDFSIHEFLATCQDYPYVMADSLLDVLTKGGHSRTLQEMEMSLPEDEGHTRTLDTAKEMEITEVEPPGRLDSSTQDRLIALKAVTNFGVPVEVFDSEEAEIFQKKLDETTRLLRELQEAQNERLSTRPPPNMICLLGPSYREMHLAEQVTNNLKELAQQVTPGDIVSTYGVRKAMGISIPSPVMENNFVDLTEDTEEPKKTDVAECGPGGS
Protocol: as §1
Western blot was performed according to the previous protocol.^[ [71], [72] ^] U937 AML cells were pelleted and then lysed in RIPA buffer (1% Triton X‐100, 0.1% SDS, 150 mM NaCl, 1 mM EDTA pH 8, 10 mM Tris‐HCl pH 8) added with 1% protease inhibitor cocktail. The resulting lysate was subjected to centrifugation for 15 minutes at 4 °C. After that, the supernatant was collected and supplemented with 6X Laemmli buffer (0.217 M Tris‐HCl pH 8.0, 52.17% SDS, 17.4% glycerol, 0.026% bromophenol blue, 8.7% beta‐mercapto‐ethanol) and boiled for 3 minutes at 99 °C,25 µg of protein extract were resolved by SDS‐polyacrylamide gel electrophoresis and then transferred on nitrocellulose membrane (Bio‐Rad). The membrane was probed with anti‐BRD9 (Bethyl Laboratories #A303‐781A), anti‐BRD7 (Invitrogen #PA5‐40379), anti‐GADPH (Elabscience # E‐AB‐40337), and anti‐α‐tubulin (Elabscience # E‐AB‐20036). The protein signal was visualized by enhanced chemiluminescence method (ECL) through the Bio‐Rad Chemidoc machine. ImageJ software was used for densitometric analysis. […]

[9] = 48 hours treatment, western blot

CCc1nnc2c(Nc3cccc(NC(C)=O)c3)nc3ccccc3n12 [compound 1]
BRD9 protein levels (degradation) [1, 9]: only a slight reduction in BRD9 protein levels | IC50 [2]: 4.2 ± 1.92 µM | U937 cell viability [3]: minimally affected

CCc1nnc2c(Nc3cccc(NC(=O)CCCCCCOCCOCC(=O)N[C@H](C(=O)N4C[C@H](O)C[C@H]4C(=O)NCc4ccc(-c5scnc5C)cc4)C(C)(C)C)c3)nc3ccccc3n12 [compound 2]
primary metabolites after incubation with HLMs [4]: dealkylation reactions | recovery at 120 min [5]: ≥ 90% | U937 cell viability [3]: strong reduction of cell viability | residual binding of histone H4 ([6]; 10 µM ligand concentration): 21.6 ± 0.3% | IC50 [6]: 2.97 ± 0.25 µM

CCc1nnc2c(Nc3cccc(NC(=O)CCCCCCNc4cccc5c4C(=O)N(C4CCC(=O)NC4=O)C5=O)c3)nc3ccccc3n12 (stereo not drawn) [compound 4]
BRD9 protein levels (degradation) [1, 9]: no effect was observed | U937 cell viability [3]: did not observe variation in cell viability

CCc1nnc2c(Nc3cccc(NC(=O)CCOCCNc4cccc5c4C(=O)N(C4CCC(=O)NC4=O)C5=O)c3)nc3ccccc3n12 (stereo not drawn) [compound 5]
U937 cell viability [3]: strong reduction of cell viability

CCc1nnc2c(Nc3cccc(NC(=O)CCOCCOCCNc4cccc5c4C(=O)N(C4CCC(=O)NC4=O)C5=O)c3)nc3ccccc3n12 (stereo not drawn) [compound 6]
BRD9 protein levels (degradation) [1, 9]: no effect was observed | U937 cell viability [3]: did not observe variation in cell viability

CCc1nnc2c(Nc3cccc(NC(=O)CCOCCOCCOCCNc4cccc5c4C(=O)N(C4CCC(=O)NC4=O)C5=O)c3)nc3ccccc3n12 (stereo not drawn) [compound 7]
BRD9 protein levels (degradation) [1, 9]: no effect was observed | U937 cell viability [3]: did not observe variation in cell viability

CCc1nnc2c(Nc3cccc(NC(=O)CCCCCCOCCOCC(=O)Nc4cccc5c4C(=O)N(C4CCC(=O)NC4=O)C5=O)c3)nc3ccccc3n12 (stereo not drawn) [compound 8]
BRD9 protein levels (degradation) [1, 9]: no effect was observed | U937 cell viability [3]: did not observe variation in cell viability

CCCCc1nnc2c(Nc3cccc(NC(=O)CCCCCCOCCOCC(=O)N[C@H](C(=O)N4C[C@H](O)C[C@H]4C(=O)NCc4ccc(-c5scnc5C)cc4)C(C)(C)C)c3)nc3ccccc3n12 [compound 9]
primary metabolites after incubation with HLMs [4]: dealkylation reactions | recovery at 120 min [5]: ≥ 90% | AML cell proliferation [7]: negatively affected AML cell proliferation | BRD9 protein levels with proteasome inhibitor MG132 ([1]; 48 hours treatment with or without MG132 (25 µM for 6 hours)): MG132 treatment rescued BRD9 depletion | concentration at which BRD9 degradation is effectively induced [1, 9]: 1 µM | U937 cell viability [3]: significantly impaired leukemic cell viability | ability to reduce leukemic cell viability and AML cell proliferation compared with dBRD9 ([3]; U937 cells, versus reference dBRD9): superior ability to reduce leukemic cell viability and AML cell proliferation | IC50 [6]: 0.66 ± 0.04 µM | fold higher binding affinity to BRD9 compared to degrader 2 ([6]; compared to compound 2): 4.5 fold | BRD7 protein levels [8]: not interfering with BRD7 protein levels
